Reference: patent US20240270762A1, “PENICILLIN-BINDING PROTEIN INHIBITORS” (priority 2021, published 2024)
≈ marks a conversion by molar mass, not a printed value. Like-named read-outs stand apart in the source and are kept apart here.

Experiments:
[1] = target: T1, PBP3 from Pseudomonas aeruginosa (PAO1) (Pseudomonas aeruginosa, UniProt G3XD46); test: Bocillin-FL fluorescence polarization competition binding, P. aeruginosa PBP3; conditions: Binding affinity to P. aeruginosa PBP3; fluorescence polarization competition binding assay using Bocillin-FL; read-out: P. aeruginosa PBP3 Potency
T1 construct: made in house
T1 sequence (G3XD46 whole entry): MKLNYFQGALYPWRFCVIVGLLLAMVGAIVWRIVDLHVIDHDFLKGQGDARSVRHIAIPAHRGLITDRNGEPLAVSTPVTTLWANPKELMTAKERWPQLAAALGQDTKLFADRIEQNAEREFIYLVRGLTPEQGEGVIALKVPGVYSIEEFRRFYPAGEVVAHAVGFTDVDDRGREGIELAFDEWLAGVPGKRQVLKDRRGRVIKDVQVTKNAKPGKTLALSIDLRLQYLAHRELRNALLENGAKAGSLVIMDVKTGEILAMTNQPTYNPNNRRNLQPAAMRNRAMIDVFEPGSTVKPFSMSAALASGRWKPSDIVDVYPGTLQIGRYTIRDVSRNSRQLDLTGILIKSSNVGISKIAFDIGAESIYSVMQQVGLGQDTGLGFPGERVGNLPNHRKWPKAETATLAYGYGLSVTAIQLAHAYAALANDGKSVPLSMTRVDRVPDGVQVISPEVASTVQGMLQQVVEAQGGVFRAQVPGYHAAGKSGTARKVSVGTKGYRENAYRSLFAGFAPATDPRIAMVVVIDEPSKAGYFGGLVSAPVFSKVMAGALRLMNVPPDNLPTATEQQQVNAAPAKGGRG
Summary of the method: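 Purified PBP was preincubated with inhibitor (E. coli PBP3 1.5 μM, 30 min; P. aeruginosa PBP3 0.75 μM, A. baumannii PBP3 0.2 μM and PBP1a 1 μM, 15 min), then Bocillin-FL (0.1 μM; 0.05 μM for PBP1a) added and FP read up to 60 min. EC50 = 50% loss of bound probe.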

P. aeruginosa ATCC 27853 = test: microbe, parasite or virus in culture; assay type: cell-based; conditions: Pseudomonas aeruginosa, ATCC27853, read-out: Minimum inhibitory concentration, P. aeruginosa ATCC 27853
P. aeruginosa CDC-0095 = test: microbe, parasite or virus in culture; assay type: cell-based; conditions: Pseudomonas aeruginosa, CDC0095, read-out: Minimum inhibitory concentration, P. aeruginosa CDC-0095
A. baumannii CDC-0036 = test: microbe, parasite or virus in culture; assay type: cell-based; conditions: Acinetobacter baumannii, CDC0036, read-out: MIC, A. baumannii CDC-0036
A. baumannii CDC-0045 = test: microbe, parasite or virus in culture; assay type: cell-based; conditions: Acinetobacter baumannii, CDC0045, read-out: MIC, A. baumannii CDC-0045
[2] = test system: B. thailandensis ATCC 700388; test: microbe, parasite or virus in culture; assay type: cell-based; conditions: Burkholderia thailandensis, ATCC700388, read-out: Minimum inhibitory concentration (MIC), B. thailandensis ATCC 700388
[3] = test system: B. humptydooensis ATCC BAA-2767; test: microbe, parasite or virus in culture; assay type: cell-based; conditions: Burkholderia humptydooensis, ATCCBAA2767, read-out: Minimum inhibitory concentration (MIC), B. humptydooensis ATCC BAA-2767
P. aeruginosa CDC-0110 = test: microbe, parasite or virus in culture; assay type: cell-based; conditions: Pseudomonas aeruginosa, CDC0110, read-out: Minimum inhibitory concentration, P. aeruginosa CDC-0110
N. gonorrhoeae FA1090 = test: Liquid broth MIC in Fastidious broth; conditions: Neisseria gonorrhoeae
N. gonorrhoeae WHO G = test: Liquid broth MIC in Fastidious broth; conditions: Neisseria gonorrhoeae
N. gonorrhoeae WHO L = test: Liquid broth MIC in Fastidious broth; conditions: Neisseria gonorrhoeae
N. gonorrhoeae WHO Q = test: Liquid broth MIC in Fastidious broth; conditions: Neisseria gonorrhoeae
[4] = FA1090, read-out: Minimum Inhibitory Concentration, FA 1090
[5] = read-out: Minimum Inhibitory Concentration, WHO G
[6] = read-out: Minimum Inhibitory Concentration, WHO L
[7] = read-out: Minimum Inhibitory Concentration, WHO Q
[8] = FA1090, read-out: Minimum Inhibitory Concentration (MIC), N. gonorrhoeae FA 1090
[9] = read-out: Minimum Inhibitory Concentration (MIC), N. gonorrhoeae WHO G
[10] = read-out: Minimum Inhibitory Concentration (MIC), N. gonorrhoeae WHO L
[11] = read-out: Minimum Inhibitory Concentration (MIC), N. gonorrhoeae WHO Q

Structure (SMILES) | IC50 [1] | MIC (P. aeruginosa ATCC 27853) | MIC (P. aeruginosa CDC-0095) | MIC (A. baumannii CDC-0036) | MIC (A. baumannii CDC-0045) | MIC [2] | MIC [3] | MIC (P. aeruginosa CDC-0110) | MIC (N. gonorrhoeae FA1090; [4]) | MIC (N. gonorrhoeae WHO G; [5]) | MIC (N. gonorrhoeae WHO L; [6]) | MIC (N. gonorrhoeae WHO Q; [7]) | MIC (N. gonorrhoeae FA1090; [8]) | MIC (N. gonorrhoeae WHO G; [9]) | MIC (N. gonorrhoeae WHO L; [10]) | MIC (N. gonorrhoeae WHO Q; [11])
O=C(NCCS(=O)(=O)N1CCN(C(=O)N[C@H](C(=O)N[C@H]2Cc3ccc(F)c(C(=O)O)c3OB2O)c2cc(F)c(O)c(O)c2Cl)C1=O)c1nccs1 [Example 263, (R)-3-((S)-2-(2-chloro-5-fluoro-3,4-dihydroxyphenyl)-2-(2-oxo-3-((2-(thiazole-2-carboxamido)ethyl)sulfonyl)imidazolidine-1-carboxamido)acetamido)-7-fluoro-2-hydroxy-3,4-dihydro-2H-benzo[e][1,2]oxaborinine-8-carboxylic acid] | 10 to 50 µM | 32 to 64 µg/mL (≈ 41.4 to 82.8 µM) | > 128 µg/mL | 32 to 64 µg/mL (≈ 41.4 to 82.8 µM) | 32 to 64 µg/mL (≈ 41.4 to 82.8 µM) | 8 to 16 µg/mL (≈ 10.4 to 20.7 µM) | 8 to 16 µg/mL (≈ 10.4 to 20.7 µM) | > 128 µg/mL | > 64 µg/mL | > 64 µg/mL | > 64 µg/mL | > 64 µg/mL | – | – | – | –
O=C(NCCCN1CCN(C(=O)NC(C(=O)N[C@H]2Cc3ccc(F)c(C(=O)O)c3OB2O)c2cc(F)c(O)c(O)c2Cl)C1=O)c1ccncc1 (stereo partly drawn) [Example 256, (3R)-3-(2-(2-chloro-5-fluoro-3,4-dihydroxyphenyl)-2-(3-(3-(isonicotinamido)propyl)-2-oxoimidazolidine-1-carboxamido)acetamido)-7-fluoro-2-hydroxy-3,4-dihydro-2H-benzo[e][1,2]oxaborinine-8-carboxylic acid] | < 10 µM | 2 to 4 µg/mL (≈ 2.79 to 5.58 µM) | 2 to 4 µg/mL (≈ 2.79 to 5.58 µM) | 2 to 4 µg/mL (≈ 2.79 to 5.58 µM) | < 1 µg/mL | < 1 µg/mL | < 1 µg/mL | 2 to 4 µg/mL (≈ 2.79 to 5.58 µM) | 4 to 8 µg/mL (≈ 5.58 to 11.2 µM) | 16 to 32 µg/mL (≈ 22.3 to 44.6 µM) | > 64 µg/mL | > 64 µg/mL | – | – | – | –
O=C(NCCN1CCN(C(=O)NC(C(=O)N[C@H]2Cc3ccc(F)c(C(=O)O)c3OB2O)c2cc(F)c(O)c(O)c2Cl)C(=O)C1=O)c1ccncc1 (stereo partly drawn) [Example 216, (3R)-3-(2-(2-chloro-5-fluoro-3,4-dihydroxyphenyl)-2-(4-(2-(isonicotinamido)ethyl)-2,3-dioxopiperazine-1-carboxamido)acetamido)-7-fluoro-2-hydroxy-3,4-dihydro-2H-benzo[e][1,2]oxaborinine-8-carboxylic acid] | < 10 µM | 2 to 4 µg/mL (≈ 2.74 to 5.47 µM) | 8 to 16 µg/mL (≈ 10.9 to 21.9 µM) | 8 to 16 µg/mL (≈ 10.9 to 21.9 µM) | 2 to 4 µg/mL (≈ 2.74 to 5.47 µM) | 2 to 4 µg/mL (≈ 2.74 to 5.47 µM) | < 1 µg/mL | < 1 µg/mL | – | – | – | – | 4 to 8 µg/mL (≈ 5.47 to 10.9 µM) | 4 to 8 µg/mL (≈ 5.47 to 10.9 µM) | > 64 µg/mL | 16 to 32 µg/mL (≈ 21.9 to 43.8 µM)
O=C(NCCS(=O)(=O)N1CCN(C(=O)N[C@@H](C(=O)N[C@H]2Cc3ccc(F)c(C(=O)O)c3OB2O)c2cc(F)c(O)c(O)c2Cl)C1=O)c1nccs1 [Example 264, (R)-3-((R)-2-(2-chloro-5-fluoro-3,4-dihydroxyphenyl)-2-(2-oxo-3-((2-(thiazole-2-carboxamido)ethyl)sulfonyl)imidazolidine-1-carboxamido)acetamido)-7-fluoro-2-hydroxy-3,4-dihydro-2H-benzo[e][1,2]oxaborinine-8-carboxylic acid] | < 10 µM | < 1 µg/mL | 2 to 4 µg/mL (≈ 2.59 to 5.18 µM) | < 1 µg/mL | < 1 µg/mL | < 1 µg/mL | 2 to 4 µg/mL (≈ 2.59 to 5.18 µM) | < 1 µg/mL | 1 to 2 µg/mL (≈ 1.29 to 2.59 µM) | 16 to 32 µg/mL (≈ 20.7 to 41.4 µM) | > 64 µg/mL | 16 to 32 µg/mL (≈ 20.7 to 41.4 µM) | – | – | – | –
CN(CCN1CCN(C(=O)N[C@@H](C(=O)N[C@H]2Cc3ccc(F)c(C(=O)O)c3OB2O)c2cc(F)c(O)c(O)c2Cl)C(=O)C1=O)Cc1cncc(O)c1 [Example 208, (R)-3-((R)-2-(2-chloro-5-fluoro-3,4-dihydroxyphenyl)-2-(4-(2-(((5-hydroxypyridin-3-yl)methyl)(methyl)amino)ethyl)-2,3-dioxopiperazine-1-carboxamido)acetamido)-7-fluoro-2-hydroxy-3,4-dihydro-2H-benzo[e][1,2]oxaborinine-8-carboxylic acid] | – | < 1 µg/mL | < 1 µg/mL | 2 to 4 µg/mL (≈ 2.68 to 5.36 µM) | < 1 µg/mL | < 1 µg/mL | < 1 µg/mL | < 1 µg/mL | – | – | – | – | 1 to 2 µg/mL (≈ 1.34 to 2.68 µM) | 4 to 8 µg/mL (≈ 5.36 to 10.7 µM) | > 64 µg/mL | 16 to 32 µg/mL (≈ 21.4 to 42.8 µM)
CN(CCN1CCN(C(=O)N[C@@H](C(=O)N[C@H]2Cc3ccc(F)c(C(=O)O)c3OB2O)c2cc(F)c(O)c(O)c2Cl)C(=O)C1=O)Cc1ccc(N)nc1 [Example 209, (R)-3-((R)-2-(4-(2-(((6-aminopyridin-3-yl)methyl)(methyl)amino)ethyl)-2,3-dioxopiperazine-1-carboxamido)-2-(2-chloro-5-fluoro-3,4-dihydroxyphenyl)acetamido)-7-fluoro-2-hydroxy-3,4-dihydro-2H-benzo[e][1,2]oxaborinine-8-carboxylic acid] | – | < 1 µg/mL | < 1 µg/mL | 2 to 4 µg/mL (≈ 2.68 to 5.36 µM) | < 1 µg/mL | < 1 µg/mL | < 1 µg/mL | < 1 µg/mL | – | – | – | – | 1 to 2 µg/mL (≈ 1.34 to 2.68 µM) | 4 to 8 µg/mL (≈ 5.36 to 10.7 µM) | > 64 µg/mL | 16 to 32 µg/mL (≈ 21.5 to 42.9 µM)
O=C(NCCCN1CCN(C(=O)NC(C(=O)N[C@H]2Cc3ccc(F)c(C(=O)O)c3OB2O)c2cc(F)c(O)c(O)c2Cl)C(=O)C1=O)Nc1cccnc1 (stereo partly drawn) [Example 213, (3R)-3-(2-(2-chloro-5-fluoro-3,4-dihydroxyphenyl)-2-(2,3-dioxo-4-(3-(3-(pyridin-3-yl)ureido)propyl)piperazine-1-carboxamido)acetamido)-7-fluoro-2-hydroxy-3,4-dihydro-2H-benzo[e][1,2]oxaborinine-8-carboxylic acid] | – | 2 to 4 µg/mL (≈ 2.63 to 5.26 µM) | < 1 µg/mL | 2 to 4 µg/mL (≈ 2.63 to 5.26 µM) | 2 to 4 µg/mL (≈ 2.63 to 5.26 µM) | 2 to 4 µg/mL (≈ 2.63 to 5.26 µM) | < 1 µg/mL | < 1 µg/mL | – | – | – | – | 1 to 2 µg/mL (≈ 1.32 to 2.63 µM) | 16 to 32 µg/mL (≈ 21.1 to 42.1 µM) | > 64 µg/mL | > 64 µg/mL
O=C(O)c1c(F)ccc2c1OB(O)[C@@H](NC(=O)C(NC(=O)N1CCN(CCCNC(=O)[C@@H]3CCCN3)C(=O)C1=O)c1cc(F)c(O)c(O)c1Cl)C2 (stereo partly drawn) [Example 212, (3R)-3-(2-(2-chloro-5-fluoro-3,4-dihydroxyphenyl)-2-(2,3-dioxo-4-(3-((S)-pyrrolidine-2-carboxamido)propyl)piperazine-1-carboxamido)acetamido)-7-fluoro-2-hydroxy-3,4-dihydro-2H-benzo[e][1,2]oxaborinine-8-carboxylic acid] | – | 2 to 4 µg/mL (≈ 2.71 to 5.43 µM) | 2 to 4 µg/mL (≈ 2.71 to 5.43 µM) | 8 to 16 µg/mL (≈ 10.9 to 21.7 µM) | 2 to 4 µg/mL (≈ 2.71 to 5.43 µM) | 2 to 4 µg/mL (≈ 2.71 to 5.43 µM) | < 1 µg/mL | < 1 µg/mL | – | – | – | – | 4 to 8 µg/mL (≈ 5.43 to 10.9 µM) | 16 to 32 µg/mL (≈ 21.7 to 43.4 µM) | > 64 µg/mL | > 64 µg/mL
